Laboratory results reported in ChEMBL document CHEMBL3045114, “SAR studies of sesquiterpene lactones as Orobanche cumana seed germination stimulants” (2002).
Active and inactive are the calls of the source. The rule behind the calls is not given here.

Tests used:
Type in all cases: functional
[1] = test system: Orobanche cernua var. cumana; assay: Induction of Orobanche cernua var. cumana seed germination at 100 uM after 6 days
Phelipanche ramosa = assay: Induction of Orobanche ramosa seed germination at 100 uM after 6 days
Orobanche crenata [2] = assay: Induction of Orobanche crenata seed germination at 100 uM after 6 days
[3] = test system: Orobanche cernua var. cumana; assay: Induction of Orobanche cernua var. cumana seed germination at 10 uM after 6 days
Orobanche minor = assay: Induction of Orobanche minor seed germination at 0.001 uM after 6 days
Orobanche crenata [4] = assay: Induction of Orobanche crenata seed germination after 6 days

Compound	Activity [3]	further results
CC1=C[C@H](O/C=C2/C(=O)O[C@@H]3c4ccccc4C[C@H]23)OC1=O	65%	Activity [1]: 50%; Activity (Phelipanche ramosa): 65%; Activity (Orobanche crenata [2]): 80%
C=C1C2[C@H]3OC(=O)C(=C)[C@@H]3CC[C@@]2(C)[C@H](O)C[C@H]1O (stereo partly specified)	inactive	
C=C1C(=O)O[C@H]2[C@H]1CCC(=C)[C@]1(O)C[C@@H](O)C(=C)[C@]21O	0%	
CC1=C[C@H](O/C=C2/C(=O)O[C@@H]3C4=C(C[C@H]23)[C@@H](O)CCC4(C)C)OC1=O [STRIGOL]		Activity (Orobanche minor): >40%
COC(=O)/C(=C/O[C@H]1C=C(C)C(=O)O1)N1C(=O)c2ccccc2C1=O [NIJMEGEN-1]		Activity (Orobanche minor): 0%
C/C1=C\CC[C@@]2(C)O[C@@H]2[C@H]2OC(=O)[C@](C)(O)[C@@H]2CC1	0%	
C=C1C(=O)O[C@@H]2/C=C(\C)CC/C=C(/CO)CC[C@@H]12	0%	
C=C1C(=O)O[C@@H]2/C=C(\C)CC[C@H]3O[C@]3(C)CC[C@@H]12 [1,10-EPOXYCOSTUNOLIDE]	>40%	
CC1=C[C@H](O/C=C2/C(=O)O[C@@H]3C4=C(CCC[C@@H]4C)C[C@H]23)OC1=O [SORGOLACTONE]		Activity (Orobanche crenata [4]): >40%
CC1=C[C@@H](O/C=C2/C(=O)O[C@H]3C=CC[C@@H]23)OC1=O	0%	
C=C1CC[C@@H](O)[C@]2(C)CC[C@H]3C(=C)C(=O)O[C@@H]3[C@@H]12 [REYNOSIN]	0%	
C=C1C(=O)O[C@@H]2C3O[C@]3(C)CC/C=C(\C)CC[C@@H]12 (stereo partly specified)	>40%	
C=C1C(=O)O[C@H]2[C@H]1CC[C@@]1(C)[C@H](O)CC=C(C)[C@]21O	inactive	
C=C1[C@@H]2[C@H]3OC(=O)C(=C)[C@@H]3CCC(=C)[C@@H]2C[C@H]1O [ISOZALUZANIN C]	>40%	
C=C1CC[C@H]2[C@H](CO)C(=O)O[C@@H]2C2C(=C)[C@H](O)CC12 (stereo partly specified)	>40%	
C=C1CC[C@H]2[C@H](CO)C(=O)O[C@@H]2C2C(=C)CCC12 (stereo partly specified)	>40%	
CC1=C[C@H](O/C=C2/C(=O)O[C@@H]3C4=C(CCCC4(C)C)[C@@H](O)[C@H]23)OC1=O [OROBANCHOL]		Activity (Orobanche minor): >40%
CC1=CC(O/C=C2/C(=O)OC3C2C=C2CCCC(C)(C)C23O)OC1=O (stereo unspecified) [ALECTROL]		Activity (Orobanche minor): >40%
